Like-named read-outs stand apart in the source and are kept apart here.

One assay concerns the target MCL1 protein (Homo sapiens (Human), UniProt Q07820). The assay is described as follows: PIxEL: protein-protein interaction in permeabilized cells by ELISA (MCL1/biotin-BIM BH3 peptide, RKO cells). Format: cell-based. Conditions: IC50, median, serum free. How it is done: PIxEL: Protein-Protein Interaction in Permeabilized Cells by ELISA
Most MCL1 protein molecules are localized at the mitochondria outer membrane and sequester pro-apoptotic proteins through binding of their BCL2 homology domain 3 (BH3 domain). MEB buffer (150 mM mannitol, 10 mM HEPES pH 7.5, 50 mM KCl, 20 μM EDTA, 20 μM EGTA, 5 mM potassium succinate, 0.1% protease-free BSA (SIGMA) with low dose digitonin (0.002%) permeabilizes plasma membrane while leaves live mitochondria, where MCL1 maintains its native localization and conformation. Unlike biophysical assays (e.g. TR-FRET) that use truncated recombinant MCL1 protein, this assay uses full length endogenous MCL1 protein at mitochondria outer membrane. It measures the interaction between MCL1 protein and biotinylated BIM BH3 peptide. Compounds can compete with BIM BH3 peptide to bind to MCL1 protein.
On day 1, RKO colon cancer cell line cells were plated at 0.8 million cells/ml, 100 μl/well in 96-well flat bottom TC plates (Corning). MCL1 antibody (Santa Cruz sc-12756) were diluted at 200 fold (final concentration 1 μg/ml) in carbonate buffer (Thermo Fisher Scientific, pH 9.6), and 50 μl of diluted antibody was added to each well of high bind ELISA plates ([…]). Each plate was tapped to make sure liquid covering entire bottom of wells and incubate at 37° C. overnight.
On the second day, MCL1 antibody was washed from ELISA plate. 250 μl Odyssey® Blocking Buffer (PBS) (Li-Cor) was added to each well, incubated at room temperature for at least 1 hour, then washed once with 250 μl 1×PBST. Plates with RKO cells were gently washed once with 100 μl/well PBS, once with 100 μl/well MEB buffer without digitonin, then 100 μl of MEB buffer with 0.002% digitonin was gently added to each well. Compounds were added with HP Tecan compound dispenser in 3-fold dilution series, highest dose 30 μM, 10-dose per compound in quadruplicates. Biotin-BIM peptide (synthesized by 21st Century) was added with HP Tecan compound dispenser at 0.2 μM immediately after the addition of compounds. Plates were rocked for 1 hour at room temperature. Then MEB buffer was aspirated and 50 μl of CHAPS buffer (50 mM Tris-Cl, pH 7.4, 150 mM NaCl, 1% CHAPS, 1 mM EDTA, 1 mM EGTA, cOmplete protease inhibitors (Roche), PhosSTOP (Roche)) was added to each well. Plates were rocked for 1 hour at 4° C., then 45 μl cell lysate from each well were transferred to ELISA plates coated with MCL1 antibody. Plates were incubated overnight in the cold room with rocking.
On the third day, ELISA plates were washed once with 250 μl 1×PBST. Streptavidin-poly-HRP (Thermo Fisher Scientific) was diluted to 20 ng/ml in Odyssey blocking buffer plus 0.05% Triton-100, and 100 μl was added to each well of the ELISA plate. Plates were incubated at RT from 1 hour with rocking, then washed with 100 μL 1×PBST for 3 times. Each SuperSignal ELISA Femto Maximum Sensitivity substrate was added to a 50-ml tube and mixed, then 100 μl of mixed substrate was added to each well. Plates were shaken for 1 minute then luminescence was measured by Envision plate reader […]. Signal of each well were normalized by no-compound control and no-cell control. IC50 was calculated using Graphic Pad PRISM software.
(In general: In an ELISA, binding on a coated surface is turned into a signal by an enzyme label.)

Assay [1] concerns SUDHL10 cells. The assay is described as follows: Induction of cytotoxicity (CellTiter-Glo, 5 h), SUDHL10. Conditions: Homo sapiens, SU-DHL10, 5 h, read-out: Cytotox SUDHL10 [M] (median), IC50, median; SUDHL10, 5 h. A general note: In ATP-based viability assays light output follows the ATP content of the culture.
The next assay deals with MCL-1 (Homo sapiens (Human), UniProt Q07820, K194A/K197A/R201A). The experiment in a line: Protein-protein interaction assay MCL-1/Noxa BH3 peptide (MCL-1 assay), TR-FRET. Format: binding. To be noted: IC50, median; MCL-1/Noxa BH3 TR-FRET. How it is done:
The dose-dependent inhibition by the compounds described in this invention of the interaction between MCL-1 and the BH3 domain of Noxa (both human) was determined using a steady state binding competition assay with time-resolved fluorescence energy transfer (TR-FRET) readout. […] The MBP-MCL-1 was purchased from Beryllium (Bedford, Mass., USA). The expression and purification of this protein construct has been described elsewhere (DOI:10.1371/journal.pone.0125010). The Noxa BH3-derived peptide can be obtained from e.g. Biosyntan (Berlin, Germany), 50812.1.
For that, 100-fold concentrated DMSO solutions were prepared by serial dilutions (1:3.4) of a 2 mM stock solution in a clear, 384-well microtiter plate (Greiner Bio-One, Frickenhausen, Germany). From there, 50 nl were transferred in a dark test plate (Greiner Bio-One, Frickenhausen, Germany). […] This was followed by a 10-minute incubation step at 22° C. for pre-equilibration of the putative complex between MBP-MCL-1 and the compounds.
The mixture was incubated in the dark for one hour at 22° C. and then overnight at 4° C.
The resulting data (ratio) were normalized, taking 0% inhibition as the mean value of control measurements (usually 32 data points) where all reagents were included. In this case 50 nl DMSO were used instead of compounds. […] IC50 values were determined by regression analysis based on a 4 parameter equation (minimum, maximum, IC50, Hill; Y=Max+(Min−Max)/(1+(X/IC50)^Hill) using the Screener Software (Genedata).
(Time-resolved FRET reads energy transfer from a long-lived donor to a nearby acceptor.)

For another assay, the system named is AMO-1 cells. The experiment in a line: Antiproliferation assay (CellTiter-Glo, 72 h), AMO-1. Format: cell-based. To be noted: IC50, median, AMO-1, 72 h, read-out: Antiproli AMO-1 [M] median. The procedure, abridged:
(§1)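 Cells were incubated with compounds for 72 h at 37°C. Viability was then read by CellTiter-Glo luminescence, and a parallel day 0 plate read the same way gave the time-zero signal.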

For the next assay, the system named is DMS-114 cells. The assay is described as follows: Antiproliferation assay (CellTiter-Glo, 72 h), DMS-114. In kind it is cell-based. To be noted: Homo sapiens, DMS-114, 72 h; read-out: Antiproli DMS-114 [M] median. How it is done: (§2) Assessment of the Anti-Proliferative Effect of Compounds in Different Cell Lines
(§3) The impact of compounds on the proliferation of different cell lines was assessed using the CellTiter-Glo® Luminescent Cell Viability reagent from Promega (G7573).
(§4) In parallel, cells were plated in a reference (day 0) plate for time zero determination.
(§5) Rim wells were excluded. The cells were incubated for 72 h hours in a humidified incubator at 37° C. The day 0 plate was measured by adding 30 μL/well of CTG solution (CellTiter-Glo® Luminescent Cell Viability reagent, Promega G7573) to time zero wells in the reference plate followed by a 10 minutes incubation and luminescence reading at 0.1 ms. using the PHERAstar FS microplate reader (BMG Labtech).
(§6) After 72 h incubation, the treated plates were measured in the same way as the day 0 plate mentioned above.

A further assay concerns HMC-1-8 cells. The assay is described as follows: Antiproliferation assay (CellTiter-Glo, 72 h), HMC-1-8. Format: cell-based. Conditions: IC50, median, HMC-1-8, 72 h, read-out: Antiproli HMC-1-8 [M] median. The procedure, abridged:
as §1

In another assay the test system is SNU-389 cells. The experiment in a line: Antiproliferation assay (CellTiter-Glo, 72 h), SNU-389. Format: cell-based. To be noted: 72 h; read-out: Antiproli SNU-389 [M] median. How it is done:
as §2, §3, §4, §5, §6

Assay [2] has as its system SUDHL5 cells. The experiment in a line: Induction of cytotoxicity (CellTiter-Glo, 5 h), SUDHL5. Conditions: Homo sapiens, SU-DHL-5, 5 h, read-out: Cytotox SUDHL5 [M] (median), IC50, median; SUDHL5, 5 h.
Assay [3] has as its system SUDHL5 cells. The experiment in a line: Induction of caspase-3/7 activity (Caspase-Glo 3/7), SUDHL5. Format: cell-based. To be noted: EC50, median, SUDHL5, 3 h treatment. Put shortly:
(§7)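 DLBCL lines treated with compounds for 3 h at 37 °C in a humidified incubator; caspase-3/7 activity read with Caspase-Glo 3/7 luminescent reagent. Medium-only background subtracted from all values.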

Assay [4] has as its system SUDHL5 cells. The assay is described as follows: Antiproliferation assay (CellTiter-Glo, 72 h), SUDHL5. Conditions: Homo sapiens, SU-DHL-5, 72 h, IC50, median; SUDHL5, 72 h; read-out: Antiproli SUDHL5 [M] (median). In kind it is cell-based. Put shortly:
as §1

In assay [5] the test system is SUDHL10 cells. The assay is described as follows: Induction of caspase-3/7 activity (Caspase-Glo 3/7), SUDHL10. Format: cell-based. Conditions: EC50, median; SUDHL10, 3 h treatment; listed as 082. Put shortly:
as §7

Sequence of MCL1 protein (Q07820 whole entry, the tested form may be a part): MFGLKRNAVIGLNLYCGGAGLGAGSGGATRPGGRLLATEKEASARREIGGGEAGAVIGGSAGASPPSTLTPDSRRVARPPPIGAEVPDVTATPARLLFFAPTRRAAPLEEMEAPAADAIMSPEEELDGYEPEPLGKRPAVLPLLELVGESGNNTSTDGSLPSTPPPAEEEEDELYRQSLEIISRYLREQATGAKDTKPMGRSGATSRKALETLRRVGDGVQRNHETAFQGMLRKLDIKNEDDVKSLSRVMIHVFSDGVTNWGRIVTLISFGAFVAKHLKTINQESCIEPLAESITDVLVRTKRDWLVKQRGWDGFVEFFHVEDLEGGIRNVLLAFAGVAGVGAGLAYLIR
Sequence of MCL-1 (Q07820 whole entry K194A/K197A/R201A, looked up, the tested form may be a part): as the sequence (Q07820 whole entry, the tested form may be a part) above, with K194A, K197A, R201A counted along it

In the case of `Cc1c2c(nn1CCCN1CCN(C)CC1)COCCCCn1c(C(=O)O)c(CCCOc3cccc4ccccc34)c3ccc(Cl)c-2c31` (single isomer, unassigned; enantiomer 1) [Example 49, (+)-4-chloro-3-methyl-2-[3-(4-methylpiperazin-1-yl)propyl]-7-{3-[(naphthalen-1-yl)oxy]propyl}-2,10,11,12,13,15-hexahydropyrazolo[4′,3′:9,10][1,6]oxazacycloundecino[8,7,6-hi]indole-8-carboxylic acid (Enantiomer 1)], the IC50 amounted to 0.436 µM against MCL1 protein; 1e-06 M in the assay on SUDHL10 cells [1]; 0.0017 µM against MCL-1; 1.5e-06 M with AMO-1 cells (Homo sapiens, AMO1, 72 h).

Consider `Cc1c2c(nn1C)COCC1CC1Cn1c(C(=O)O)c(CCCOc3cccc4ccccc34)c3ccc(Cl)c-2c31` (single isomer, unassigned; stereoisomer 2) [Example 66, (9aR,10aS or 9aS,10aR)-3-chloro-4,5-dimethyl-14-{3-[(naphthalen-1-yl)oxy]propyl}-5,7,9a,10,10a,11-hexahydro-9H-cyclopropa[3,4]pyrazolo[4′,3′:9,10][1,6]oxazacycloundecino-[8,7,6-hi]indole-13-carboxylic acid—Stereoisomer 2], for which the IC50 against MCL1 protein is 1.74 µM; with SUDHL10 cells [1], 1.4e-07 M; with DMS-114 cells, 3.15e-07 M; in the assay with HMC-1-8 cells, 1e-06 M; in the assay on SNU-389 cells, 5.76e-07 M.

For orientation: EC50 means the midpoint of the concentration-response curve. Lower therefore signals greater potency. `Cc1c2c(nn1C)COCC1CC1Cn1c(C(=O)O)c(CCCOc3cccc4ccccc34)c3ccc(Cl)c-2c31` (single isomer, unassigned; stereoisomer 1) [Example 65, (9aS,10aR or 9aR,10aS)-3-chloro-4,5-dimethyl-14-{3-[(naphthalen-1-yl)oxy]propyl}-5,7,9a,10,10a,11-hexahydro-9H-cyclopropa[3,4]pyrazolo[4′,3′:9,10][1,6]oxazacycloundecino-[8,7,6-hi]indole-13-carboxylic acid—Stereoisomer 1]: the IC50 on MCL1 protein was found to be 0.752 µM; in the assay with SUDHL5 cells [2], 3.3e-07 M; with SUDHL5 cells [4] it was 2.7e-07 M; at MCL-1 it was 0.0027 µM; in the assay on HMC-1-8 cells, 2.5e-06 M; with AMO-1 cells (Homo sapiens, AMO1, 72 h), 6e-07 M. In the assay on SUDHL5 cells [3] (Homo sapiens, SU-DHL-5, 3 h), this molecule showed a half-maximal effective concentration (EC50) of 0.27 µM.

Take `Cc1c2c(nn1C)COCC1CC1Cn1c(C(=O)O)c(CCCOc3cccc4ccccc34)c3ccc(Cl)c-2c31` (single isomer, unassigned) [Example 82, 3-chloro-4,5-dimethyl-14-{3-[(naphthalen-1-yl)oxy]propyl}-5,7,9a,10,10a,11-hexahydro-9H-cyclopropa[3,4]pyrazolo[4′,3′:9,10][1,6]oxazacycloundecino[8,7,6-hi]indole-13-carboxylic acid]: the IC50 against MCL1 protein stood at 0.225 µM; in the assay on SUDHL5 cells [2], 4.9e-07 M; in the assay with SUDHL5 cells [4] it was 8.1e-07 M; against MCL-1, 0.0016 µM; in the assay with AMO-1 cells (listed as 082), 2.9e-06 M. Besides, the figures for the EC50 in the assay with SUDHL10 cells [5] and with SUDHL5 cells [3] (listed as 082) were 1.1 µM and 0.49 µM, respectively.

Turning to `Cc1c2c(nn1C)CN(C)CCCCn1c(C(=O)O)c(CCCOc3cccc4cc(F)ccc34)c3ccc(Cl)c-2c31` (racemic) [Example 30, (rac)-4-chloro-7-{3-[(6-fluoronaphthalen-1-yl)oxy]propyl}-2,3,14-trimethyl-10,11,12,13,14,15-hexahydro-2H-pyrazolo[3′,4′:8,9][1,6]diazacycloundecino[10,11,1-hi]indole-8-carboxylic acid], the IC50 on MCL1 protein turned out to be 0.227 µM; in the assay with HMC-1-8 cells (72 h), 1.6e-06 M; in the assay on AMO-1 cells (Homo sapiens, AMO1, 72 h) it was 4.2e-07 M.

Values taken from patent US11478451B1, “Macrocyclic chlorine substituted indole derivatives” (Bayer Aktiengesellschaft, priority 2017, dated 2022).
